{"source": "ChEMBL document CHEMBL1151717", "about": "“In vivo active aldosterone synthase inhibitors with improved selectivity: lead optimization providing a series of pyridine substituted 3,4-dihydro-1H-quinolin-2-one derivatives” (J Med Chem, 2008)", "key": {"[1]": {"molecular_target": "Cytochrome P450 3A4 (Homo sapiens, UniProt P08684)", "sequence (P08684 whole entry)": "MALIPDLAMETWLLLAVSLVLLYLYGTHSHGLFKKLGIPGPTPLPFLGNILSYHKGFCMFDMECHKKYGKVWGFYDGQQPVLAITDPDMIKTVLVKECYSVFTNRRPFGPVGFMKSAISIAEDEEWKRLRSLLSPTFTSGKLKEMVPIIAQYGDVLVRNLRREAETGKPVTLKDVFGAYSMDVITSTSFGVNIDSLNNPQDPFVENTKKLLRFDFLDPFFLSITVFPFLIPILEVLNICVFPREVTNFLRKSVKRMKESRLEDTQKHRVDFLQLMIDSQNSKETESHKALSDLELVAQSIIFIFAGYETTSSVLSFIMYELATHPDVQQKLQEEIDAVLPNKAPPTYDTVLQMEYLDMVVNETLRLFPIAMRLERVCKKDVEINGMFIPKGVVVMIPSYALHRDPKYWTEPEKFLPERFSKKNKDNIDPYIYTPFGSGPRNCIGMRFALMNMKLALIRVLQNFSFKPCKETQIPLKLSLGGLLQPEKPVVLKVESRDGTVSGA", "assay": "Inhibition of human recombinant CYP3A4 expressed in baculovirus-infected insect microsomes", "format": "ADME, Microsome"}, "[2]": {"assay": "Terminal half life in Wistar rat at 1 mg/kg, iv", "format": "ADME, organism-based", "design": "dose 1 mg/kg, route intravenous", "conditions": "in vivo, read-out: beta t1/2 (converted)"}, "[3]": {"assay": "Cmax in Wistar rat at 5 mg/kg, po by cassette dosing", "format": "ADME, organism-based", "design": "dose 5 mg/kg, route oral", "conditions": "in vivo"}, "[4]": {"assay": "Terminal half life in Wistar rat at 5 mg/kg, po by cassette dosing", "format": "ADME, organism-based", "design": "dose 5 mg/kg, route oral", "conditions": "in vivo, read-out: beta t1/2 (converted)"}, "[5]": {"molecular_target": "Cytochrome P450 2D6 (Homo sapiens, UniProt P10635)", "sequence (P10635 whole entry)": "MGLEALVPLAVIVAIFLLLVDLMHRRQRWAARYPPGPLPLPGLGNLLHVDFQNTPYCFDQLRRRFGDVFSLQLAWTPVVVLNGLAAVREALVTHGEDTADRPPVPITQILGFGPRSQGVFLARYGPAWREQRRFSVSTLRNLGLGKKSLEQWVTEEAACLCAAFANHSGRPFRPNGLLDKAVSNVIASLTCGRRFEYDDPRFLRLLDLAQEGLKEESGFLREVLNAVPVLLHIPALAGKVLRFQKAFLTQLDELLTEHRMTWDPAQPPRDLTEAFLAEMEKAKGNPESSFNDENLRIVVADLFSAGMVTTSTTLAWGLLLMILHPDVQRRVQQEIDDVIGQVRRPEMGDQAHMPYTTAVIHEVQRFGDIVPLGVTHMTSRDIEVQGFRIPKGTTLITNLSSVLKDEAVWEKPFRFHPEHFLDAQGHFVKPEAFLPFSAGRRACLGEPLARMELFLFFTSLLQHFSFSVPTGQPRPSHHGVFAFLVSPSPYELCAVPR", "assay": "Inhibition of human recombinant CYP2D6 expressed in baculovirus-infected insect microsomes", "format": "ADME, Microsome", "conditions": "read-out: IC50"}, "[6]": {"molecular_target": "T1, Cytochrome P450 2B6 (Homo sapiens, UniProt P20813)", "T1 sequence (P20813 whole entry)": "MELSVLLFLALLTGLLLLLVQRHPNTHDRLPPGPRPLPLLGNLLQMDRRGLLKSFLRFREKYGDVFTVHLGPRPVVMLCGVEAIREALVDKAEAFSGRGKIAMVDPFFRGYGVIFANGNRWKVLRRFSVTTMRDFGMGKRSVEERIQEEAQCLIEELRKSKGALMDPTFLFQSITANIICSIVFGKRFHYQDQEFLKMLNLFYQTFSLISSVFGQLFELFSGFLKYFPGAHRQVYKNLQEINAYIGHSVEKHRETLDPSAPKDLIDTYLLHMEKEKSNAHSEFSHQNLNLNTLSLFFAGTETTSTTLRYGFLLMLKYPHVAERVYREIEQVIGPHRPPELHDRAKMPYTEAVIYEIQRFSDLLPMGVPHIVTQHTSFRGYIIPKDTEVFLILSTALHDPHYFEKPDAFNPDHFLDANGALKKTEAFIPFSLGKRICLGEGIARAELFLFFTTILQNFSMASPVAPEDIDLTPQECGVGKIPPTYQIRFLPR", "assay": "Inhibition of human recombinant CYP2B6 expressed in baculovirus-infected insect microsomes", "format": "ADME, Microsome"}, "[7]": {"assay": "Tmax in Wistar rat at 5 mg/kg, po by cassette dosing", "format": "ADME, organism-based", "design": "dose 5 mg/kg, route oral", "conditions": "in vivo"}, "[8]": {"assay": "Protein binding in human plasma at 3 uM after 1 hr", "format": "ADME, cell-free", "conditions": "read-out: PPB (converted)"}, "[9]": {"assay": "Terminal half life in Wistar rat at 25 mg/kg, po", "format": "ADME, organism-based", "design": "dose 25 mg/kg, route oral", "conditions": "in vivo, read-out: beta t1/2 (converted)"}, "[10]": {"assay": "Protein binding in rat plasma at 3 uM after 1 hr", "format": "ADME, cell-free", "conditions": "read-out: PPB (converted)"}, "[11]": {"assay": "AUC (0 to infinity) in Wistar rat at 5 mg/kg, po by cassette dosing", "format": "ADME, organism-based", "design": "time infinity, dose 5 mg/kg, route oral", "conditions": "plasma"}, "[12]": {"molecular_target": "T2, CYP17 (Homo sapiens, UniProt P05093)", "T2 sequence (P05093 whole entry)": "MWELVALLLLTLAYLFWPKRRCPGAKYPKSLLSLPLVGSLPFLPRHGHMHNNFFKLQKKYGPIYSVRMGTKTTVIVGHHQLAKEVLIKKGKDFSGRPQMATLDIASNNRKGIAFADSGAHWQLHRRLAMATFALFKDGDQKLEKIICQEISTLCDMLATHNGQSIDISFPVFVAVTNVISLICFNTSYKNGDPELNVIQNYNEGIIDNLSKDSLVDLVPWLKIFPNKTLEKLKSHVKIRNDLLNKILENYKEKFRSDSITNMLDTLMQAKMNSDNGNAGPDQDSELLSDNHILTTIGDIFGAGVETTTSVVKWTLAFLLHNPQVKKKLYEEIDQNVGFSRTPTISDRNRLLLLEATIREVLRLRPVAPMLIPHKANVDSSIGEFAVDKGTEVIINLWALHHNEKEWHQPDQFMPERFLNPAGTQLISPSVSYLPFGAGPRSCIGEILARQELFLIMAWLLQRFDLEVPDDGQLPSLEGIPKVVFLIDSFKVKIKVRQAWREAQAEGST", "assay": "in vitro", "conditions": "human CYP17 expressed in Escherichia coli", "description": "Inhibition of human CYP17 expressed in Escherichia coli at 2.5 uM"}, "[13]": {"molecular_target": "T3, Cytochrome P450 1A2 (Homo sapiens, UniProt P05177)", "T3 sequence (P05177 whole entry)": "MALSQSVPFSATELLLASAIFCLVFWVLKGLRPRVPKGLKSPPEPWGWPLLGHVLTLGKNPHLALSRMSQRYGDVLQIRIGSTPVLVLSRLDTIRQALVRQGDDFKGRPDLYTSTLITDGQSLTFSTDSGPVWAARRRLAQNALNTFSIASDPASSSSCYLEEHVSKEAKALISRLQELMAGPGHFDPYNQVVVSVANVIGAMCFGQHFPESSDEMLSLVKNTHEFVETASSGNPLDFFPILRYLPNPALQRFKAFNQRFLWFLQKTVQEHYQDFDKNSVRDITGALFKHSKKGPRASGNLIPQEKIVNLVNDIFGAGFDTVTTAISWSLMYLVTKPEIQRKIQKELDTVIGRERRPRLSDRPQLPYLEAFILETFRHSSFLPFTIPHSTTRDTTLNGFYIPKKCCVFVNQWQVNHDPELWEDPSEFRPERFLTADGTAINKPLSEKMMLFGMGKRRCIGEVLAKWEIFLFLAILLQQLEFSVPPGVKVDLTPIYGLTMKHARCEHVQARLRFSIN"}, "[14]": {"molecular_target": "Cytochrome P450 2C9 (Homo sapiens, UniProt P11712)", "sequence (P11712 whole entry)": "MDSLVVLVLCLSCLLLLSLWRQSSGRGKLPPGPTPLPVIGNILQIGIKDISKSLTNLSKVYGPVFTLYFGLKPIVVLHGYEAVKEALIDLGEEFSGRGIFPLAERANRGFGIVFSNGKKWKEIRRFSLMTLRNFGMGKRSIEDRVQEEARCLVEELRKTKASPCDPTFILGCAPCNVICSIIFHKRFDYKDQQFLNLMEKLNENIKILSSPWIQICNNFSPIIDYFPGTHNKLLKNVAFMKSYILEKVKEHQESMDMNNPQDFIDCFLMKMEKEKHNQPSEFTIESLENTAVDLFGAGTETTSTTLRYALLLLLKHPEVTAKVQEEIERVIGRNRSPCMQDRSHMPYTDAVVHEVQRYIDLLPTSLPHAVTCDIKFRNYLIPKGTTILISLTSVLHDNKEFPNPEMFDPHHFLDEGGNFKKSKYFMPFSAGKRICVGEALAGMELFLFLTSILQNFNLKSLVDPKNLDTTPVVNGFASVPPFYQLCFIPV", "assay": "Inhibition of human recombinant CYP2C9 expressed in baculovirus-infected insect microsomes", "format": "ADME, Microsome"}, "[15]": {"molecular_target": "T4, CYP1A2 (Homo sapiens, UniProt P05177)", "T4 sequence (P05177 whole entry)": "T3 sequence (P05177 whole entry)", "assay": "Inhibition of human recombinant CYP1A2 expressed in baculovirus-infected insect microsomes at 2 uM", "format": "ADME, Microsome"}, "[16]": {"assay": "Tmax in Wistar rat at 25 mg/kg, po", "format": "ADME, organism-based", "design": "dose 25 mg/kg, route oral", "conditions": "in vivo"}, "[17]": {"assay": "AUC (0 to infinity) in Wistar rat at 25 mg/kg, po", "format": "ADME, organism-based", "design": "time infinity, dose 25 mg/kg, route oral", "conditions": "plasma"}, "[18]": {"assay": "Oral bioavailability in Wistar rat at 25 mg/kg", "conditions": "in vivo"}, "[19]": {"molecular_target": "T5, CYP19 (aromatase) (Homo sapiens, UniProt P11511)", "T5 sequence (P11511 whole entry)": "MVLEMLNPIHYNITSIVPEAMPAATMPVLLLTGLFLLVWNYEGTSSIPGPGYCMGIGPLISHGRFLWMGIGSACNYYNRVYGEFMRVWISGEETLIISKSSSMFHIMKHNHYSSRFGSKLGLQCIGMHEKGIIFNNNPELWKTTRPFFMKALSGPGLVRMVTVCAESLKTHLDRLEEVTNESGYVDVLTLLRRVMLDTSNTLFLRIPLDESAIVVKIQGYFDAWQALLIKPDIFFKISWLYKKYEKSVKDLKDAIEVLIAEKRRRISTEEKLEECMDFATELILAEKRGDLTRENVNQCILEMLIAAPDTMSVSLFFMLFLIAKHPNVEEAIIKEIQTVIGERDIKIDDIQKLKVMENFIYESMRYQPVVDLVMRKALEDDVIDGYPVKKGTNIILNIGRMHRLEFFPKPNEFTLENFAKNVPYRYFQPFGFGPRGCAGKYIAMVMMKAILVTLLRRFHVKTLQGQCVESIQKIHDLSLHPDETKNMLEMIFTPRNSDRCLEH", "assay": "Inhibition of human placental CYP19 at 500 nM", "format": "functional"}, "[20]": {"assay": "AUC (0 to infinity) in Wistar rat at 1 mg/kg, iv", "format": "ADME, organism-based", "design": "time infinity, dose 1 mg/kg, route intravenous", "conditions": "plasma"}, "[21]": {"assay": "Cmax in Wistar rat at 25 mg/kg, po", "format": "ADME, organism-based", "design": "dose 25 mg/kg, route oral", "conditions": "in vivo"}}, "data": [{"smiles": "O=C1CCc2cc(-c3cccnc3)ccc2N1", "values": [{"measurement": "IC50", "setting": "[1]", "value": 127, "unit": "µM"}, {"measurement": "half-life", "setting": "[2]", "value": 102, "unit": "min"}, {"measurement": "Cmax", "setting": "[3]", "value": 261, "unit": "ng/mL"}, {"measurement": "half-life", "setting": "[4]", "value": 228, "unit": "min"}, {"measurement": "IC50", "setting": "[5]", "value": 171, "unit": "µM"}, {"measurement": "IC50", "setting": "[6]", "value": "< 50", "unit": "µM"}, {"measurement": "Tmax", "setting": "[7]", "value": 4, "unit": "h"}, {"measurement": "fraction unbound at 1 h, 3 µM", "setting": "[8]", "value": 0.39}, {"measurement": "half-life", "setting": "[9]", "value": 72, "unit": "min"}, {"measurement": "fraction unbound at 1 h, 3 µM", "setting": "[10]", "value": 0.4}, {"measurement": "AUC(0-inf)", "setting": "[11]", "value": 1750, "unit": "ng·h/mL"}, {"measurement": "inhibition at 2.5 µM", "setting": "[12]", "value": 41, "unit": "%"}, {"measurement": "IC50", "setting": "[13]", "value": 1950, "unit": "nM"}, {"measurement": "IC50", "setting": "[14]", "value": 58.9, "unit": "µM"}, {"measurement": "inhibition at 2 µM", "setting": "[15]", "value": 50, "unit": "%"}, {"measurement": "Tmax", "setting": "[16]", "value": 1, "unit": "h"}, {"measurement": "AUC(0-inf)", "setting": "[17]", "value": 4760, "unit": "ng·h/mL"}, {"measurement": "bioavailability", "setting": "[18]", "value": 71, "unit": "%"}, {"measurement": "inhibition at 0.5 µM", "setting": "[19]", "value": 21, "unit": "%"}, {"measurement": "AUC(0-inf)", "setting": "[20]", "value": 270, "unit": "ng·h/mL"}, {"measurement": "Cmax", "setting": "[21]", "value": 1540, "unit": "ng/mL"}]}]}
